Publication PMC8035258 (ChemMedChem, 2021)
Read-outs that look alike come from different tables or passages of the source. Values belong to the compound of their own block, whether it stands above or below them.

Tests used:
[1] = target: Mitochondrial respiratory complex II (Mus musculus, UniProt Q8K2B3+Q9CQA3+Q9CXV1+Q9CZB0); assay: Complex II inhibition assay; assay type: biochemical
[2] = system: CII; details: read-out: CII IC50, cited from earlier work
[3] = system: 22Rv1 prostate cancer cells; assay: MTS cytotoxicity assay in 22Rv1 prostate cancer cells; assay type: cell-based; details: 100 μM up to 72 hours
[4] = system: TNBC MDA-MB-468 cells; assay: MTS cytotoxicity assay in MDA-MB-468 cells; assay type: cell-based
[5] = system: low tumorigenic human endothelial kidney (HEK293) cells; assay: MTS cytotoxicity assay in HEK293 cells; assay type: cell-based; details: Homo sapiens, HEK293, 72 h, read-out: HEK293 IC50
[6] = system: CII; details: read-out: CII IC50; rat heart mitochondria; cited from earlier work
[7] = system: breast cancer; details: 200–300 mg/day, nine patients, stable disease for 4–8 months; cited from earlier work
[8] = system: TTK; details: 100 μM, KinomeScan; cited from earlier work
[9] = system: IRAK1; details: 100 μM, KinomeScan; cited from earlier work
[10] = system: 22Rv1 prostate cancer cells; details: read-out: 22Rv1 IC50, clinical agents; cited from earlier work

Mitochondrial respiratory complex II, sequence (Q8K2B3 43-664): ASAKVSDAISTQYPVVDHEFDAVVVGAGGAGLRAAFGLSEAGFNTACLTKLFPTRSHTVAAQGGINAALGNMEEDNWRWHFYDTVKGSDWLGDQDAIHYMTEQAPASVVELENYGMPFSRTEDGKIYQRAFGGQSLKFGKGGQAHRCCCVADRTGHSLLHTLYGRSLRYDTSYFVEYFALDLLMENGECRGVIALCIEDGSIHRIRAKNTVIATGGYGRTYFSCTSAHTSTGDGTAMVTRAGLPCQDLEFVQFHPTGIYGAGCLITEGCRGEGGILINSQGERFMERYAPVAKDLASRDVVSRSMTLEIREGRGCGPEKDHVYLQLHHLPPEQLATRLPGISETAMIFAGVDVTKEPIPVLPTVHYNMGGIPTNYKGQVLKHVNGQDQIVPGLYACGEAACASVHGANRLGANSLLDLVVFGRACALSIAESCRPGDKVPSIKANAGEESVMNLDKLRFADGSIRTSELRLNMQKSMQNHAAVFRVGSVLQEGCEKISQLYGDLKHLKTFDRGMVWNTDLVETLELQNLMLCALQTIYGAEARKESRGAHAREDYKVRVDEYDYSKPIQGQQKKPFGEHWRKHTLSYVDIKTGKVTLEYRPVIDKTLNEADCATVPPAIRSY
Mitochondrial respiratory complex II, sequence (Q9CQA3 31-282): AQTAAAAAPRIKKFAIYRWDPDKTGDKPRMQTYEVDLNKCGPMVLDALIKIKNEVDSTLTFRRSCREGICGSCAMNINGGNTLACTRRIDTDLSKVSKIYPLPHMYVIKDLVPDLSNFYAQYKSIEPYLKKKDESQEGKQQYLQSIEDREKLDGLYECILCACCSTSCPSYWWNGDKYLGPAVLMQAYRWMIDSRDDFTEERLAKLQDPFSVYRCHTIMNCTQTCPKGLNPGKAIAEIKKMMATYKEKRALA
Mitochondrial respiratory complex II, sequence (Q9CZB0 30-169): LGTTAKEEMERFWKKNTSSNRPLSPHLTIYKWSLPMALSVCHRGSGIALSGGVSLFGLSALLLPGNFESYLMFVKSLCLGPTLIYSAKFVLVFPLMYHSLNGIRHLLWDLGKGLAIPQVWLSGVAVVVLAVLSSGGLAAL
Mitochondrial respiratory complex II, sequence (Q9CXV1 57-159): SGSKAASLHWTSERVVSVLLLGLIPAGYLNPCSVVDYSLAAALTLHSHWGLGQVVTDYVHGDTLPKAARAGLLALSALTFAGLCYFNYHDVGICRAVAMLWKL

Structure (SMILES): COc1[nH]c(=O)c(C(=O)[C@@H](C)C[C@H](C)[C@@H](Cl)CCl)c(O)c1OC [Atpenin A5, atpenin A5]
inhibition at 0.1 µM ([1]; read-out: % inhibition of CII at 0.1 μM): 93%
IC50 ([2]; positive control): 0.0033 µM
IC50 ([2]; ubiquinone binding site (IIQ)): 0.0036 to 0.01 µM

IC50 [1]: 1236 ± 2.5 µM
% Inhibition CII (100 μM) ([1]; 100 μM, mouse liver mitochondria, mean ±SD of n = 4, listed as DZX): no CII inhibition activity
inhibition at 100 µM ([1]; read-out: % Inhibition CII (100 μM), 100 μM, mouse liver mitochondria, mean ±SD of n = 4): 9%
Structure (SMILES): CC1=Nc2ccc(Cl)cc2S(=O)(=O)N1 [Diazoxide, 7-chloro-3-methyl-2H-1,2,4-benzothiadiazine 1,1-dioxide, reference compound]
effect to reduce cell viability of prostate cancer cells [3]: no effect
effect to reduce cell viability of breast cancer cells ([4]; 100 μM up to 72 hours): no effect
SI (Selectivity Index) ([4]; MDA-MB-468 over HEK293 cells): 1.26
IC50 ([4]; read-out: MDA-MB-468 IC50, 72 hours, mean ±SD of n=3): 434 ± 26.2 µM
IC50 [5]: 547 ± 34.1 µM
IC50 [6]: 32 µM
response rate [7]: 33%
kinase inhibition [8]: 15%
kinase inhibition [9]: 9%

Structure (SMILES): CNC(=O)c1ccc(N2C(=S)N(c3cnc(C#N)c(C(F)(F)F)c3)C(=O)C23CCC3)cc1F [apalutamide]
IC50 [10]: 77 ± 17 µM

Structure (SMILES): CC(O)c1cc(C(=O)N[C@@H](C)Cn2ccc(-c3ccc(C#N)c(Cl)c3)n2)[nH]n1 (some centres unmarked) [darolutamide]
IC50 [10]: 46 ± 10 µM
